Test results from patent US20090087845A1, “Genetic Markers Of True Low Birth Weight” (priority 2005, published 2009).
“And” between values parts separate entries of the source, which are not always exact repeats. Equal entries are not always repeated.

System: placental gene expression
Experiment: Placental gene expression (Affymetrix Rat Genome Chip 230.2) after SSRI (fluoxetine) exposure throughout gestation
Type: in vivo
Details: SSRI exposure during gestation
Protocol: Gene expression data from pregnant rats under different forms of dietary restriction was gathered. […] (N=8) • Group 2 (CR50): Rats Given 50% of their Normal Daily Intake of Food. (N=5) • Group 3 (CR70): Rats Given 70% of their Normal Daily Intake of Food. […] (N=6) Placentas from the rats of each Group were harvested on Day 21 of gestation. RNA was extracted and gene expression was measured based on hybridization of RNA to Affymetrix Rat Genome Chips™ (230.2) (Affymetrix, Santa Clara, Calif.).
In order to determine whether placental gene expression profiling can be used to identify other prenatal exposures such as toxicants and drugs, a group of rats with drug exposure was monitored as described above. […] As with control, CR50, CR70, and HF groups, placentas from the mothers were sampled after 21 days of gestation and gene expression monitored utilizing an Affymetrix Rat Genome Chip.

CNCCC(Oc1ccc(C(F)(F)F)cc1)c1ccccc1 (stereo not shown) [fluoxetine, Fluoxetine]
Probeset 1367856_at expression: 9.227 and 9.529 and 9.365 and 9.385 and 9.39 and 9.762 | Probeset 1367877_at expression: 10.9 and 11 and 11.21 and 11.25 and 10.7225 and 10.35 | Probeset 1368083_at expression: 8.132 and 7.967 and 8.206 and 8.272 and 8.391 and 8.145 | Probeset 1368824_at expression: 8.826 and 8.855 and 9.531 and 9.13 and 8.806 and 9.976 | Probeset 1369754_a_at expression: 8.0392 and 8.245 and 7.92 and 7.959 and 8 and 8.033 | Probeset 1369775_at expression: 8.114 and 8.469 and 8.777 and 8.329 and 7.897 and 9.185 | Probeset 1370293_at expression: 5.003 and 5.146 and 4.947 and 4.866 and 4.888 and 5.155 | Probeset 1370317_at expression: 8.087 and 8.102 and 8.255 and 8.308 and 8.15 and 8.491 | Probeset 1370521_at expression: 8.446 and 8.335 and 8.321 and 8.443 and 8.486 and 8.352 | Probeset 1370682_at expression: 5.234 and 5.326 and 5.095 and 5.171 and 5.242 and 5.482 | Probeset 1370766_at expression: 4.942 and 4.938 and 5.166 and 5.489 and 5.322 and 4.712 | Probeset 1370918_a_at expression: 11.31 and 11.2792 and 11.25 and 11.37 and 11.45 and 11.49 | Probeset 1370983_at expression: 5.843 | Probeset 1371435_at expression: 11.01 and 10.91 and 11.23 and 11.08 and 10.99 and 11.27 | Probeset 1372141_at expression: 9.139 and 9.134 and 9.292 and 9.347 and 9.239 and 9.295 | Probeset 1373319_at expression: 9.055 and 9.237 and 9.183 and 9.332 and 9.182 and 9.352 | Probeset 1373396_at expression: 9.155 and 8.864 and 9.203 and 9.102 and 8.933 and 8.366 | Probeset 1373572_at expression: 7.868 and 7.822 and 7.63 and 7.991 and 8.104 and 8.161 | Probeset 1373647_at expression: 8.371 and 8.23 and 8.672 and 8.447 and 8.268 and 8.235 | Probeset 1373702_at expression: 8.332 and 8.305 and 8.162 and 8.514 and 8.322 and 7.814 | Probeset 1373804_at expression: 6.825 (2×) and 6.702 and 7.208 and 7.238 and 7.527 | Probeset 1374112_at expression: 6.448 and 6.479 and 6.686 and 6.529 and 6.5 and 6.601 | Probeset 1374739_at expression: 8.91 and 8.84 and 9.07 and 9.074 and 8.858 and 8.669 | Probeset 1375178_at expression: 5.861 and 5.694 and 5.836 and 5.574 and 5.873 and 5.942 | Probeset 1375407_at expression: 4.147 and 4.198 and 4.162 and 4.179 and 4.18 and 4.21 | Probeset 1376294_at expression: 8.241 and 8.136 and 8.122 and 8.206 and 8.031 and 7.939 | Probeset 1376622_at expression: 9.179 and 9.106 and 9.158 and 9.007 and 8.828 and 8.85 | Probeset 1376661_at expression: 9.243 and 8.93 and 9.166 and 9.213 and 9.04 and 8.674 | Probeset 1377210_at expression: 5.248 and 4.863 and 5.701 and 5.485 and 5.015 and 5.172 | Probeset 1377365_at expression: 4.943 and 5.014 and 4.818 and 5.177 and 5.084 and 4.987 | Probeset 1377621_at expression: 9.058 and 9.148 and 9.272 and 8.936 and 8.844 and 9.114 | Probeset 1377746_at expression: 6.748 and 6.563 and 6.855 and 6.829 and 6.772 and 6.746 | Probeset 1378200_at expression: 3.497 and 3.656 and 3.453 and 3.611 and 3.537 and 3.653 | Probeset 1378318_at expression: 7.345 and 7.18 and 7.153 and 7.373 and 7.289 and 7.671 | Probeset 1378906_at expression: 4.061 and 4.197 and 4.196 and 4.263 and 4.048 and 4.099 | Probeset 1378992_at expression: 3.715 and 3.63 and 3.611 and 3.744 and 3.567 and 3.655 | Probeset 1379691_at expression: 5.195 and 5.15 and 5.65 and 5.355 and 5.021 and 5.425 | Probeset 1379822_at expression: 4.426 and 4.487 and 4.337 and 4.483 and 4.602 and 4.654 | Probeset 1379827_at expression: 7.363 and 6.823 and 7.052 and 7.077 and 7.08 and 7.626 | Probeset 1379963_at expression: 6.946 and 6.646 and 6.73 and 6.72 and 6.71 and 6.95 | Probeset 1380175_at expression: 5.161 (2×) and 4.962 and 5.291 and 5.16 and 5.03 | Probeset 1380454_at expression: 6.241 and 5.984 and 6.009 and 5.948 and 5.974 and 6.055 | Probeset 1380887_at expression: 4.924 | Probeset 1381074_at expression: 4.46 and 4.412 | Probeset 1381130_at expression: 3.907 and 4.131 and 4.062 and 4.007 and 3.997 and 4.159 | Probeset 1381286_at expression: 5.782 and 5.606 and 5.685 and 5.499 and 5.475 and 5.605 | Probeset 1381456_at expression: 5.51 and 5.294 and 5.392 and 5.362 and 5.479 and 5.538 | Probeset 1381492_at expression: 3.395 and 3.359 and 3.315 and 3.411 and 3.371 and 3.465 | Probeset 1381950_at expression: 3.272 and 3.248 and 3.336 and 3.304 and 3.319 and 3.328 | Probeset 1382156_at expression: 4.657 and 4.812 and 4.826 and 4.712 and 4.874 and 4.952 | Probeset 1382513_at expression: 6.674 and 6.665 and 6.481 and 6.607 and 6.737 and 6.659 | Probeset 1382670_at expression: 8.608 and 8.307 and 8.399 and 8.688 and 8.346 and 8.2197 | Probeset 1383054_at expression: 8.808 and 9.017 and 9.07 and 8.991 and 8.711 and 9.326 | Probeset 1383300_at expression: 8.006 and 8.007 and 8.362 and 8.2749 and 8.022 and 8.359 | Probeset 1383309_at expression: 8.849 and 8.69 and 8.969 and 8.891 and 8.934 and 8.618 | Probeset 1383329_at expression: 5.895 and 5.614 and 5.92 and 5.669 and 5.593 and 5.826 | Probeset 1383443_at expression: 5.684 and 5.567 and 5.755 and 5.468 and 5.752 and 5.677 | Probeset 1383599_at expression: 8.081 and 7.626 and 7.843 and 7.829 and 8.127 and 9.642 | Probeset 1383670_at expression: 6.71 and 6.607 and 6.621 and 6.709 and 6.712 and 7.383 | Probeset 1384367_at expression: 5.722 and 5.628 and 5.604 and 6.025 and 5.735 and 5.669 | Probeset 1384528_at expression: 6.295 and 6.64 and 6.851 and 6.656 and 6.5 and 7.042 | Probeset 1384573_at expression: 8.901 and 8.97 and 9.056 and 9.081 and 8.766 and 9.188 | Probeset 1384849_at expression: 4.389 and 4.321 and 4.282 and 4.323 and 4.508 and 4.489 | Probeset 1385074_at expression: 5.671 and 5.563 and 5.768 and 5.526 and 5.195 and 5.636 | Probeset 1385113_at expression: 7.347 and 7.428 and 7.301 and 7.161 and 7.417 and 7.088 | Probeset 1385137_at expression: 6.487 and 6.691 and 6.525 and 6.507 and 6.657 and 6.515 | Probeset 1385290_at expression: 5.912 and 5.666 and 5.934 and 5.765 and 5.855 and 6.05 | Probeset 1385386_at expression: 3.88 and 3.887 and 3.724 and 3.939 and 3.964 and 3.997 | Probeset 1385391_at expression: 3.906 | Probeset 1385676_at expression: 7.767 and 7.784 and 7.6 and 7.923 and 7.825 and 7.957 | Probeset 1385790_at expression: 8.874 and 8.703 and 8.936 and 8.711 and 8.797 and 8.832 | Probeset 1385967_at expression: 7.8281 and 7.604 and 7.783 and 7.853 and 7.739 and 7.587 | Probeset 1386125_at expression: 6.722 and 6.815 and 6.394 and 6.647 and 6.915 and 6.555 | Probeset 1387136_at expression: 6.858 and 6.879 and 6.716 and 6.836 and 6.917 and 6.91 | Probeset 1387693_a_at expression: 6.346 and 5.564 and 5.898 and 6.298 and 6.19 and 6.092 | Probeset 1387694_at expression: 4.568 (2×) and 4.709 and 4.717 and 4.669 and 4.592 | Probeset 1387822_at expression: 6.542 and 6.446 and 6.117 and 6.626 and 6.634 and 6.309 | Probeset 1387836_at expression: 6.084 and 6.195 and 5.76 and 6.333 and 6.223 and 6.427 | Probeset 1387914_at expression: 7.114 and 7.095 and 6.97 and 7.203 and 7.171 and 6.743 | Probeset 1388091_at expression: 4.883 and 4.896 and 4.86 and 4.66 and 4.763 and 5.101 | Probeset 1388131_at expression: 5.883 and 5.853 (2×) and 5.899 and 5.7 and 5.653 | Probeset 1388363_at expression: 8.334 and 8.137 and 8.387 and 8.484 and 8.155 and 8.23 | Probeset 1388396_at expression: 8.583 and 8.468 and 8.633 and 8.876 and 8.642 and 8.158 | Probeset 1388669_at expression: 7.593 and 7.653 and 7.716 and 7.739 and 7.557 and 7.506 | Probeset 1389095_at expression: 4.796 and 4.404 and 4.732 and 4.907 and 5.027 and 4.473 | Probeset 1389213_at expression: 8.131 and 8.028 and 7.745 and 7.914 and 8.246 and 8.135 | Probeset 1389599_at expression: 7.15 and 6.872 and 6.834 and 7.063 and 7.294 and 6.817 | Probeset 1389938_at expression: 3.471 and 3.408 and 3.488 and 3.5 and 3.516 and 3.49 | Probeset 1390406_at expression: 10.34 and 10.3557 and 10.5 and 10.19 and 10.46 and 10.31 | Probeset 1390477_at expression: 5.455 and 5.297 and 5.408 and 5.153 and 5.575 and 5.333 | Probeset 1390592_at expression: 7.922 and 8.042 and 8.388 and 8.1 and 7.908 and 8.783 | Probeset 1390603_at expression: 7.171 and 7.008 and 7.6 and 6.976 and 7.243 and 7.286 | Probeset 1390649_at expression: 7.938 and 7.688 and 7.673 and 7.791 and 7.858 and 7.491 | Probeset 1390892_at expression: 5.596 and 5.604 and 5.507 and 5.408 and 5.571 and 5.5082 | Probeset 1391078_at expression: 8.106 and 8.271 and 8.74 and 8.604 and 8.221 and 9.079 | Probeset 1391283_at expression: 5.834 and 5.874 and 5.96 and 5.702 and 5.598 and 5.898 | Probeset 1391376_at expression: 7.65 and 7.982 and 7.683 and 7.518 and 7.491 and 7.602
